Test results reported in patent publication US6239171A, “Tocotrienols and tocotrienol-like compounds and methods for their use” (Lipogenics, Inc., priority 1998, dated 2001).

How the values were obtained:
[1] = biological target: T1, HMG-CoA reductase (Sus scrofa, UniProt Q1W675); test: Hepatic HMG-CoA reductase activity in hypercholesterolemic swine; type: in vivo; details: control diet + 50 ppm
T1 construct: The hepatic enzymatic activity of the HMG-CoA reductase decreased approximately 30%; from tissue; host or cells: pig liver, microsomes
T1 sequence (Q1W675 1-885): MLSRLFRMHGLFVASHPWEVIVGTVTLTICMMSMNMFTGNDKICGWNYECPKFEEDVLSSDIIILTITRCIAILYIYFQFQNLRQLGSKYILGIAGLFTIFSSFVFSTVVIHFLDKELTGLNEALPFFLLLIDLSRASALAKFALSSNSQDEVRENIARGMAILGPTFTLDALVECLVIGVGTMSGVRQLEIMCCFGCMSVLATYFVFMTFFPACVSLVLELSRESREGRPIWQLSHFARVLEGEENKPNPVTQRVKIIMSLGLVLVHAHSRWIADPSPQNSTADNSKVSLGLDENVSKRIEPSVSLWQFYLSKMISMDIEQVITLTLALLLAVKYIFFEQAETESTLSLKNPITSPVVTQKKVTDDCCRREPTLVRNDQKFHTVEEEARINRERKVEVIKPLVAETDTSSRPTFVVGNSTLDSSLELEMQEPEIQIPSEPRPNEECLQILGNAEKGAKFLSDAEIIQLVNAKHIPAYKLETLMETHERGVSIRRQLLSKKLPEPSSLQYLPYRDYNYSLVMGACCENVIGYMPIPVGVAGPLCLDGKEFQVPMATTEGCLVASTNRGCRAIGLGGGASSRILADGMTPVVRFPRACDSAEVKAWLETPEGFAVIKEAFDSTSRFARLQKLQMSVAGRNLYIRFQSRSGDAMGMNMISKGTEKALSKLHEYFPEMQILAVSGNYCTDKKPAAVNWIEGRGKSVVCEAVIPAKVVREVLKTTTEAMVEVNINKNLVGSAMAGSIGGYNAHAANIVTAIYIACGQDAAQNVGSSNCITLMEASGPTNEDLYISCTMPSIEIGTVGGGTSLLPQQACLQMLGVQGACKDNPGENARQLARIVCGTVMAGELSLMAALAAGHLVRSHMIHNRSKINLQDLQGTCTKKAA
From the text: (§1) All assays conducted on chicken or swine serum were done following the protocols described in A. A. Qureshi et al., "Lowering Of Serum Cholesterol In Hypercholesterolemic Humans By Tocotrienols" (Palmvitee), Am. J. Clin. Nutr., 53, pp. 1021S-26S (1991). All enzymatic assays were done following the protocols described in A. A. Qureshi et al., "Effects of Cereals and Culture Filtrate of Trichoderma viride on Lipid Metabolism of Swine", Lipids, 17, pp. 924 (1982). Plasma insulin, glucagon and TNF levels were measured using radioinnumoassay kits from Ventrex Laboratories, Inc. (Portland, Me.), ICN Biomedicals, Inc. (Costa Mesa, Calif.) and Genzyme Corp. (Cambridge, Mass.), respectively.
(§2) We next measured the effects of various tocotrienols from rice bran on HMG-CoA reductase and cholesterol 7α-hydroxylase in hypercholesterolemic swine. Since pigs are very similar to humans in their cholesterol metabolism, they provide a useful model from which to study hypercholesterolemia and related diseases. […] The serum cholesterol concentration in these swine is typically above 300-500 mg/dl, as compared to 120-160 mg/dl in normal adult swine. As a result, the pigs develop complicated atherosclerotic plaques that closely resemble advanced atherosclerotic lesions found in humans.
(§3) Each group of three 5-month old swine was administered either a control diet or a control diet supplemented with 50 ppm of TRF or 50 ppm of an individual tocotrienol. The samples were prepared as described in Example 11. After a 12 hour fast, serum and plasma samples were taken a 0 hrs, 21 days and 42 days from the start of the feeding period. After taking serum and plasma samples from the pigs at the end of the 42 day period, all of the swine were fasted for a total of 40 hours, followed by a 48 hour refeeding period. One swine from each group was sacrificed at that time and the liver, intestine, lung, heart, loin muscle, adipose tissue and ham muscle were removed.

[2] = test system: hypercholesterolemic swine; test: Plasma thromboxane B2 and platelet factor 4 in hypercholesterolemic swine; type: in vivo; parameters: Platelet Factor 4: unit not given here; details: control diet + 50 ppm, 42 days
From the text: as §1, §3
This example was conducted to measure the serum levels of apolipoprotein (a)1, apolipoprotein B, triglycerides, glucose, insulin and glucagon and the plasma levels of thromboxane B2 and platelet factor 4 in the swine described in Example 15.

[3] = test system: cholesterol 7α-hydroxylase; test: Hepatic cholesterol 7α-hydroxylase activity in chickens fed supplemented diets; type: in vivo, chicken; details: control diet + 50 ppm, 4 weeks
Procedure: This example measured the effects of the TRF and its components on the hepatic enzymatic activity of HMG-CoA reductase and cholesterol 7α-hydroxylase. […] The amount of feed consumed ranged from 11.19-11.60 g per chicken and the feeding period was 4 weeks. The birds were fasted for a period of 36 hours and refed for 48 hours prior to sacrifice (at 0800 hours).

[4] = test system: cholesterol 7α-hydroxylase; test: Hepatic cholesterol 7α-hydroxylase activity in hypercholesterolemic swine; type: in vivo; details: control diet + 50 ppm
From the text: as §1, §2, §3

[5] = test system: chickens; test: Antibody titers to sheep red blood cells in chickens; type: in vivo, chicken; details: 4 weeks; for IgG antibody titers in serum / IgM antibody titers in serum / Total Ab titers in serum: control diet + 50 ppm, sheep red blood cells i.p.
Procedure: The model for this study was 6-week old female white leghorn chickens. Each group of 12 chickens was fed an unsupplemented chicken diet or a control diet supplemented with 50 ppm of a tocotrienol or 100 ppm of a commercially available hypercholesterolemic agent (Geraniol or Lovastatin). […] The chickens were fed over a period of 4 weeks, then the blood was drawn. The antibody response was determined by injecting the chickens i.p. with 0.5 ml of a 5% suspension of sheep red blood cells (RBCs) in PBS (v/v) which were previously washed three times. […] Relative IgG levels were determined by using 2-mercaptoethanol preincubation for 30 min. The relative IgM levels were calculated by subtracting the IgG antibody levels from total antibody levels. All antibody levels are expressed as the log base 2 of the highest titer that was needed to hemagglutinate an equal volume of 0.5% RBC suspension.

[6] = test system: chickens; test: Serum cholesterol, apolipoproteins, triglycerides and glucose in chickens fed supplemented diets; type: in vivo, chicken; details: 4 weeks; for APO A1, percentage of control / APO A1 in serum / APO B in serum / APO B, percentage of control / DL-Cholesterol/Total Cholesterol / DL-Cholesterol/Total Cholesterol, percentage of control / Glucose in serum / Glucose, percentage of control / HDL-Cholesterol in serum / HDL-Cholesterol, percentage of control / HDL-Cholesterol/LDL-Cholesterol / HDL-Cholesterol/LDL-Cholesterol, percentage of control / LDL-Cholesterol in serum / LDL-Cholesterol, percentage of control / Total Cholesterol in serum / Total Cholesterol, percentage of control / Triglycerides in serum / Triglycerides, percentage of control: control diet + 50 ppm
From the text: as §1, with “respectively. […]” for “respectively.”
Each group of 6 chickens (6-week old female while leghorn) was administered the chick mash diet described in Example 5, supplemented with one of three different amounts of waxes (sterols), 50 ppm of TRF (prepared as in Example 2) or 5% equivalent of the methanol insoluble fraction Louisiana rice bran oil. […] The birds were fasted for a period of 14 hours prior to sacrifice (at 0800 hours). […]

## CC(C)=CCC/C(C)=C/CC/C(C)=C/CCC1CCc2cc(O)ccc2O1 (centres unmarked) [P25, 3,4-dihydro-2-(4,8,12-trimethyltrideca-3'(E),7'(E),11'-trienyl)-2H-1-benzopyran-6-ol]
[1]; 21 days
  HMG-CoA REDUCTASE: 307.27 pg/min/mg of microsomes
  HMG-CoA REDUCTASE, percentage of 0-time value: 87.58%
[1]; 42 days
  HMG-CoA REDUCTASE: 269.43 pg/min/mg of microsomes
  HMG-CoA REDUCTASE, Percentage of Control Activity: 69.75%
  HMG-CoA REDUCTASE, percentage of 0-time value: 76.79%
[2]
  Platelet Factor 4: 19.15
  Platelet Factor 4, percentage of control: 79.36%
  Thromboxane B2: 57.03 pg/100 ml
  Thromboxane B2, percentage of control: 83.02%
[3]
  Cholesterol 7α-Hydroxylase, percentage of control: 111.45%
  Cholesterol 7α-hydroxylase: 11.39 nmol/min/mg
[4]; 21 days
  CHOLESTEROL 7α-HYDROXYLASE, percentage of baseline value: 101.09%
  Cholesterol 7α-hydroxylase: 4.62 pg/min/mg of microsomes
[4]; 42 days
  CHOLESTEROL 7α-HYDROXYLASE, Percentage of Control Activity: 98.58%
  CHOLESTEROL 7α-HYDROXYLASE, percentage of baseline value: 102.41%
  Cholesterol 7α-hydroxylase: 4.68 pg/min/mg of microsomes
[5]; 50 ppm in diet
  total antibody titer and IgM titer compared to the control (in words): increased
[5]
  IgG antibody titers in serum: 2.43 ± 1.40 Log 2
  IgM antibody titers in serum: 8.92 Log 2
  Total Ab titers in serum: 10.30 ± 1.16 Log 2
[6]; 50 ppm in diet
  increase in the HDL-/LDL-cholesterol ratio: > 100%
  rank as cholesterol inhibitor among compounds tested (in words): most potent cholesterol inhibitors
  reduction of serum cholesterol: ~33%
[6]
  APO A1, percentage of control: 98.78%
  APO A1 in serum: 138.70 mg/100 ml
  APO B in serum: 25.20 mg/100 ml
  APO B, percentage of control: 76.13%
  DL-Cholesterol/Total Cholesterol: 0.73
  DL-Cholesterol/Total Cholesterol, percentage of control: 125.30%
  Glucose in serum: 196.10 mg/100 ml
  Glucose, percentage of control: 87.43%
  HDL-Cholesterol in serum: 70.12 ± 1.25 mg/dL
  HDL-Cholesterol, percentage of control: 53.82%
  HDL-Cholesterol/LDL-Cholesterol: 3.05
  HDL-Cholesterol/LDL-Cholesterol, percentage of control: 200.60%
  LDL-Cholesterol in serum: 23.00 ± 1.27 mg/dL
  LDL-Cholesterol, percentage of control: 41.77%
  Total Cholesterol in serum: 95.51 ± 1.11 mg/dL
  Total Cholesterol, percentage of control: 66.90%
  Triglycerides in serum: 54.65 mg/100 ml
  Triglycerides, percentage of control: 73.82%

## CC(C)=CCC/C(C)=C/CC/C(C)=C/CCC1(C)CCc2cc(O)c(C)c(C)c2O1 (centres unmarked) [γ-T3, γ-tocotrienol, reference compound]
[1]; 21 days
  HMG-CoA REDUCTASE: 300.72 pg/min/mg of microsomes
  HMG-CoA REDUCTASE, percentage of 0-time value: 86.19%
[1]; 42 days
  HMG-CoA REDUCTASE: 280.88 pg/min/mg of microsomes
  HMG-CoA REDUCTASE, Percentage of Control Activity: 73.31%
  HMG-CoA REDUCTASE, percentage of 0-time value: 80.71%
[2]
  Platelet Factor 4, percentage of control: 85.28%
  Thromboxane B2: 62.54 pg/100 ml
  Thromboxane B2, percentage of control: 92.25%
[3]
  Cholesterol 7α-Hydroxylase, percentage of control: 107.34%
  Cholesterol 7α-hydroxylase: 10.97 nmol/min/mg
[4]; 21 days
  CHOLESTEROL 7α-HYDROXYLASE, percentage of baseline value: 100.89%
  Cholesterol 7α-hydroxylase: 4.53 pg/min/mg of microsomes
[4]; 42 days
  CHOLESTEROL 7α-HYDROXYLASE, Percentage of Control Activity: 98.18%
  CHOLESTEROL 7α-HYDROXYLASE, percentage of baseline value: 102.00%
  Cholesterol 7α-hydroxylase: 4.58 pg/min/mg of microsomes
[5]
  IgG antibody titers in serum: 1.28 Log 2
  IgM antibody titers in serum: 5.83 ± 1.53 Log 2
  Total Ab titers in serum: 6.60 ± 1.51 Log 2
[6]
  APO A1, percentage of control: 99.57%
  APO A1 in serum: 139.80 mg/100 ml
  APO B in serum: 29.53 mg/100 ml
  APO B, percentage of control: 89.21%
  DL-Cholesterol/Total Cholesterol: 0.67
  DL-Cholesterol/Total Cholesterol, percentage of control: 114.50%
  Glucose in serum: 208.70 mg/100 ml
  Glucose, percentage of control: 93.05%
  HDL-Cholesterol in serum: 78.39 ± 0.96 mg/dL
  HDL-Cholesterol, percentage of control: 93.70%
  HDL-Cholesterol/LDL-Cholesterol: 2.09
  HDL-Cholesterol/LDL-Cholesterol, percentage of control: 137.50%
  LDL-Cholesterol in serum: 37.52 ± 0.81 mg/dL
  LDL-Cholesterol, percentage of control: 68.14%
  Total Cholesterol in serum: 116.86 ± 1.47 mg/dL
  Total Cholesterol, percentage of control: 81.85%
  Triglycerides in serum: 61.07 mg/100 ml
  Triglycerides, percentage of control: 82.49%
